This note sets out measurements from patent US20100151486A1, “OSTEOPONTIN FUNCTIONAL EPITOPES, MONOCLONAL ANTIBODIES AGAINST THE EPITOPES AND USES THEREOF” (SHANGHAI NATIONAL ENGINEERING RESEARCH CENTER OF A, priority 2007, published 2010).

Test [1] concerns human vascular endothelial cell (HUVEC). Kind of test: HUVEC proliferation by 3H-TdR incorporation. It counts as cell-based. The settings on record: M200+1% BSA+OPN; 24 hours. The protocol: HUVEC cell proliferation was measured by the ^3H-TdR incorporation method to determine the protective effect of OPN on cell survival and the inhibitory effect of the anti-OPN antibodies on the OPN protection. Each well of a 96-well plate was inoculated with 2×10^4 HUVECs and cultured in a complete medium for 24 hours. The cells were then treated as following for 24 hours: […]
iv. M200+1% BSA+OPN+murine anti-OPN antibody 1A12 v. M200+1% , BSA+OPN+human-murine chimeric anti-OPN antibody c1A12 vi. M200+1% BSA+OPN+humanized anti-OPN antibody h1A12 vii. M200+1% BSA+OPN+irrelevant antibody
24 hours later, 1 uCi/well ^3H-thymidine was added and, after being incubated at 37° C. for 6 hours, washed once with PBS. The plate was treated with ice-cold 10% trichloroacetic acid/H2O at 4° C. for 10 min, and then washed for two times with, ice-cold ddH2O. Cytolysis was conducted by adding into each well 0.1 ml of 0.5 N NaOH, 0.5% SDS at room temperature for 10 min. After adding 0.2 ml of 0.5 N HCl and mixing, the cells were collected using a multiple cell collector.

Test [2] concerns chicken embryo chorioallantoic membrane (CAM). Kind of test: Chicken embryo chorioallantoic membrane (CAM) angiogenesis assay. The class given is in vivo. The settings on record: human OPN 250 ng; P<0.01. The protocol: The Leghorn chicken embryos were purchased from the farm with a fertilization rate of >90%. The 8-day old chicken embryos were selected. After sterilization, a small hole was drilled in the center of the top air chamber of the embryo with a lancet, the surrounding shell with the inner membrane was removed with caution to create an opening of 1 cm×1 cm. Then the following analytes/gelatin sponge were added to the CAM surface: i) PBS; ii) HOPN; iii) human OPN (250 ng); iv) human OPN (250 ng)+the irrelevant antibody as control (1 μg); v) human OPN (250 ng)+the murine anti-OPN antibody 1A12 (1 μg); vi) human OPN (250 ng)+the murine-human chimeric anti-OPN antibody c1A12 (1 μg); vii) human OPN (250 ng)+the humanized anti-OPN antibody h1A1.2 (1 μg).
The analytes/gelatin sponge were added to the CAM surface, which was far away from the already-formed dense vascular network. […] The number of vessels within an area edging 2 mm from the edges of the carrier slide was counted under a dissecting microscope to study the angiogenesis using the “vascular index” (Ribatti, D., B. Nico, A. Vacca et al., The gelatin sponge-chorioallantoic membrane assay. Nat Protoc, 2006, 1 (1): 85-91). The number of vessel was counted at the same magnification under the dissecting microscope. The result in each sample group was expressed as “mean±standard deviation (x±S)”. […]

The target of test [3] is T1, human osteopontin (human OPN protein) (human, UniProt P10451 17-314, limits assumed).
T1 construct: The isoform follows from the 963 bp PCR fragment and is not otherwise stated; also called hOPN
Kind of test: Western blot on purified recombinant OPN. For orientation: A western blot detects proteins with antibodies after separation by electrophoresis.

For test [4], the target named is T1, human osteopontin (human OPN protein). Kind of test: ELISA, plate coated with OPN 2 ug/ml, COS-1 supernatant, HRP-rabbit anti-human IgG. As to the method: An ELISA plate was coated with 2 ug/ml OPN. The binding activity of the humanized antibody obtained from the transfection was detected by ELISA. […] The amino acid sequences of the h1A12HBb's and the h1A12Lb's variable regions were shown in FIG. 4, SEQ ID NO: 18 and SEQ ID NO: 19 show the nucleotide sequence and the amino acid sequence of h1A12Hb's variable region respectively. SEQ ID NO: 20 and SEQ ID NO: 21 show the nucleotide sequence and the amino acid sequence of h1A12Lb's variable region respectively. The genes of the humanized antibody's VH and VL (h1A12VHb/h1A12VLb) were synthesized respectively. […] Then, expression vectors of the light and the heavy chain were used to co-transfect the COS-1 cells. The antibody's antigen-binding activity was determined by ELISA. Specifically, an ELISA plate was coated with OPN protein (2 ug/ml) coated at 4° C. overnight, and was blocked with 2% BSA-PBS for 2 h at 37° C. […] HRP-rabbit anti-human IgG was added into the plate for binding reaction (incubated at 37° C. for 1 h).
A general note: An ELISA detects its analyte on a solid surface through an enzyme-linked reagent.

T1 sequence (P10451 17-314 limits assumed): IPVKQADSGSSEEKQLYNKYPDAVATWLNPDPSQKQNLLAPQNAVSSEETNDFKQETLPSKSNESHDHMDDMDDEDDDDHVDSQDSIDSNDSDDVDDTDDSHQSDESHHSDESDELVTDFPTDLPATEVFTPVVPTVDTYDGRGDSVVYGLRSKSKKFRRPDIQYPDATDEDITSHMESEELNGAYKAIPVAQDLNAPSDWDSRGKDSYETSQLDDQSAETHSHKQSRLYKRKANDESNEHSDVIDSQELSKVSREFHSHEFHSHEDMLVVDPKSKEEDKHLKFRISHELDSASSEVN

For “OPN: human osteopontin protein expressed in Pichia yeast and purified (Example 3)”, the “3H-TdR incorporation relative to the 1% BSA treatment group” value in test [1] worked out at 3.08±0.64 times. The “angiogenesis in the chicken embryo's CAM in comparison with PBS” value in test [2] is “significantly enhance”.

B1: murine anti-human OPN monoclonal antibody 1A12 (antibody, V domains shown)
VH: QVQLEQSGPELVKPGASVKMSCKSSGYTFTTYVMHWVKQKPGQGLEWIGYINPYNDGSKYNEKFKGKATLTSDKSSNTAYMELSSLTSEDSAVYYCASHYGGSPAYWGQGTLVTVSA
VL: DILMTQTPLSLPVSLGDQASISCRSSQSLVHSNGNTYLHWYLQKPGQSPKLLIYKVSNRFSGVPDRFSGSGSGTDFTLKISRVEAEDLGVYFCSQSTHVPWTFGGGTKLEIKR
notes: Hybridoma antibody purified from mouse ascites on protein A. Mouse constant regions; also called mouse anti-hOPN mAb 1A12; anti-OPN mAb 1A12
As to B1, in test [3], the binding result was “binds”.

B2: human-mouse chimeric anti-hOPN antibody c1A12 (antibody, human IgG1, kappa, V domains shown)
VH: B1 VH
VL: B1 VL
notes: Tested as COS-1 supernatant in the ELISA and as CHO-purified antibody in the cell assays; also called chimeric antibody c1A12
Take B2: in test [4], the binding result is “binds”.
